The values that follow come from patent publication US20240398828A1, “HETERO-ATOM CONTAINING COMPOUNDS AND USES THEREOF” (Kumquat Biosciences Inc., priority 2021, published 2024).

In one experiment the target is T1, PTPN2 (i.e., TC-PTP) (Homo sapiens, UniProt P17706).
T1 sequence (P17706 1-415): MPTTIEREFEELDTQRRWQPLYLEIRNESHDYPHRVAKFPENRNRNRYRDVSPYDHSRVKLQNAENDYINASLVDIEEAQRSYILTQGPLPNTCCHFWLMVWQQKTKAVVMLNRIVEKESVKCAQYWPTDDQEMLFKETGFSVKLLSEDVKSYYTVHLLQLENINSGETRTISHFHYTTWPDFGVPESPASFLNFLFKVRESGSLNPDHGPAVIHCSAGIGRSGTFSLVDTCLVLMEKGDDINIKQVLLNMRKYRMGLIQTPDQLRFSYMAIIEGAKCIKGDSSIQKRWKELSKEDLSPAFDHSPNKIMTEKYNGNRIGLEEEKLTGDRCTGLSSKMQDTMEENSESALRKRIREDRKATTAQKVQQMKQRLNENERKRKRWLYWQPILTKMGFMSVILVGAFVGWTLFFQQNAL
As to the kind of experiment: Phosphatase activity assay (DiFMUP substrate), PTPN2. In kind it is biochemical. The conditions noted are these: compounds binned ≤1 uM or >1 uM. In short, it runs like this: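 RT, HEPES pH 7.5 buffer with DTT/Tween-20. 10-point inhibitor series premixed ~2 min with enzyme (PTPN2 0.025 ng/ul). Start with DiFMUP at enzyme Km (~45 μM for PTPN2). Read DiFMU ex360/em450 continuously 15–30 min; initial rate vs concentration, 4-parameter fit → IC50.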

Another experiment has as its target T2, PTPN1 (i.e., PTP1B) (Homo sapiens, UniProt P18031).
T2 sequence (P18031 1-435): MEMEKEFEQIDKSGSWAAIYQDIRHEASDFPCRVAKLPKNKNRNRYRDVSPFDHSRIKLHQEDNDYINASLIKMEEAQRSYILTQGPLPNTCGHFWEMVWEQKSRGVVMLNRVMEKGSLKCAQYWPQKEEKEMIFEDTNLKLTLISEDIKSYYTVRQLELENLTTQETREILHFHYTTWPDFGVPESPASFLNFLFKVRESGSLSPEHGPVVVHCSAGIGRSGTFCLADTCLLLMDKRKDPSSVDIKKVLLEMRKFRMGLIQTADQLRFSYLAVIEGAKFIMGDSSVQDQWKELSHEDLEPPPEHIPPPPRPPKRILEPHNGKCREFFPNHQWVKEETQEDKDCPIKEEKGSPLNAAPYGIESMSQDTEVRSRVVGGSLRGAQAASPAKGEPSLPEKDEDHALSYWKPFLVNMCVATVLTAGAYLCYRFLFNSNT
As to the kind of experiment: Phosphatase activity assay (DiFMUP substrate), PTP1B. It is filed as biochemical. The conditions noted are these: compounds binned ≤1 uM or >1 uM. In short, it runs like this:
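Read-out is continuous fluorescence of DiFMU (360 nm excitation, 450 nm emission) over about 15-30 minutes, with DiFMUP substrate at the enzyme's independently determined Km (PTPN2 approx. 45 μM final). Buffer: 50 mM HEPES pH 7.5, 150 mM NaCl, 0.5 mM EDTA, 1 mM DTT, 0.001% Tween-20, room temperature; initial rates versus 10-point dilution fitted for IC50, at least duplicate.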

For the molecule `O=C1CN(c2c(O)ccc(C3CNC(CO)C3)c2F)S(=O)(=O)N1` (stereo not shown) [Compound 327, 5-(2-fluoro-6-hydroxy-3-(5-(hydroxymethyl)pyrrolidin-3-yl)phenyl)-1,2,5-thiadiazolidin-3-one 1,1-dioxide], the IC50 (commonly the concentration that inhibits the measured activity by half) at PTPN2 (i.e., TC-PTP) was not above 1000 nM; on PTPN1 (i.e., PTP1B) it was not above 1000 nM.

Take `O=C1CN(c2c(O)ccc(-c3cn(C4CCOCC4)cn3)c2F)S(=O)(=O)N1` [Compound 328, 5-(2-fluoro-6-hydroxy-3-(1-(tetrahydro-2H-pyran-4-yl)-1H-imidazol-4-yl)phenyl)-1,2,5-thiadiazolidin-3-one 1,1-dioxide]: the concentration for half-maximal inhibition (IC50) at PTPN2 (i.e., TC-PTP) is not above 1000 nM; at PTPN1 (i.e., PTP1B), not above 1000 nM.

In the case of `O=C1CN(c2c(O)ccc(-c3cc(C4CC4)n(CC4CCNC4)n3)c2F)S(=O)(=O)N1` (stereo not shown) [Compound 329, 5-(3-(5-cyclopropyl-1-(pyrrolidin-3-ylmethyl)-1H-pyrazol-3-yl)-2-fluoro-6-hydroxyphenyl)-1,2,5-thiadiazolidin-3-one 1,1-dioxide], the IC50 on PTPN2 (i.e., TC-PTP) was not above 1000 nM; at PTPN1 (i.e., PTP1B), not above 1000 nM.

As to `NC1CC=C(c2ccc(O)c(N3CC(=O)NS3(=O)=O)c2F)C1` (stereo not shown) [Compound 330, 5-(3-(4-aminocyclopent-1-en-1-yl)-2-fluoro-6-hydroxyphenyl)-1,2,5-thiadiazolidin-3-one 1,1-dioxide], the IC50 was not above 1000 nM on PTPN2 (i.e., TC-PTP) and not above 1000 nM on PTPN1 (i.e., PTP1B).

For the molecule `CCn1nc(-c2ccc(O)c(N3CC(=O)NS3(=O)=O)c2F)cc1C1CC1` [Compound 331, 5-(3-(5-cyclopropyl-1-ethyl-1H-pyrazol-3-yl)-2-fluoro-6-hydroxyphenyl)-1,2,5-thiadiazolidin-3-one 1,1-dioxide], the IC50 at PTPN2 (i.e., TC-PTP) is not above 1000 nM; at PTPN1 (i.e., PTP1B) it was not above 1000 nM.

As for `O=C1CN(c2c(O)ccc(-c3cc(N4CCCCC4)n[nH]3)c2F)S(=O)(=O)N1` [Compound 332, 5-(2-fluoro-6-hydroxy-3-(3-(piperidin-1-yl)-1H-pyrazol-5-yl)phenyl)-1,2,5-thiadiazolidin-3-one 1,1-dioxide], the IC50 was not above 1000 nM on PTPN2 (i.e., TC-PTP) and not above 1000 nM on PTPN1 (i.e., PTP1B).

Take `Cn1ccc(-c2cc(-c3ccc(O)c(N4CC(=O)NS4(=O)=O)c3F)[nH]n2)c1` [Compound 333, 5-(2-fluoro-6-hydroxy-3-(3-(1-methyl-1H-pyrrol-3-yl)-1H-pyrazol-5-yl)phenyl)-1,2,5-thiadiazolidin-3-one 1,1-dioxide]: the IC50 at PTPN2 (i.e., TC-PTP) is not above 1000 nM; on PTPN1 (i.e., PTP1B), not above 1000 nM.

Take `CC(C)CCc1ncc(-c2ccc(O)c(N3CC(=O)NS3(=O)=O)c2F)[nH]1` [Compound 334, 5-(2-fluoro-6-hydroxy-3-(2-isopentyl-1H-imidazol-5-yl)phenyl)-1,2,5-thiadiazolidin-3-one 1,1-dioxide]: the half-inhibitory concentration (IC50) was not above 1000 nM at PTPN2 (i.e., TC-PTP) and not above 1000 nM on PTPN1 (i.e., PTP1B).

For `O=C1CN(c2c(O)ccc(-c3ccc(NS(=O)(=O)C4CCC4)cc3)c2F)S(=O)(=O)N1` [Compound 335, N-(3′-(1,1-dioxido-4-oxo-1,2,5-thiadiazolidin-2-yl)-2′-fluoro-4′-hydroxy-[1,1′-biphenyl]-4-yl)cyclobutanesulfonamide], the IC50 on PTPN2 (i.e., TC-PTP) is not above 1000 nM; at PTPN1 (i.e., PTP1B) it was not above 1000 nM.

As to `O=C1CN(c2c(O)ccc(-c3cc(C(=O)N4CCOCC4)n[nH]3)c2F)S(=O)(=O)N1` [Compound 336, 5-(2-fluoro-6-hydroxy-3-(3-(morpholine-4-carbonyl)-1H-pyrazol-5-yl)phenyl)-1,2,5-thiadiazolidin-3-one 1,1-dioxide], the IC50 at PTPN2 (i.e., TC-PTP) is not above 1000 nM; on PTPN1 (i.e., PTP1B), not above 1000 nM.

In the case of `O=C1CN(c2c(O)ccc(-c3cc(C(F)F)n[nH]3)c2F)S(=O)(=O)N1` [Compound 337, 5-(3-(3-(difluoromethyl)-1H-pyrazol-5-yl)-2-fluoro-6-hydroxyphenyl)-1,2,5-thiadiazolidin-3-one 1,1-dioxide], the IC50 at PTPN2 (i.e., TC-PTP) was not above 1000 nM; on PTPN1 (i.e., PTP1B), not above 1000 nM.
